Assay results reported in patent US6586389B1, “Cubilin protein, DNA sequences encoding cubilin and uses thereof” (Administrators of the Tulane Educational Fund, priority 1998, dated 2003).

Experiments:
Rabbit megalin = experiment: Megalin-cubilin interaction analysis by surface plasmon resonance; type: binding
Method: Rabbit megalin was immobilized to a sensor chip and the on rates and off rates for the binding of cubilin was recorded by flow of 20 nM purified cubilin along the chip surface. For control, cubilin was subjected to a blank chip. […] The binding curves in the presence of 10 mM EDTA or after prebinding of RAP to megalin are also shown. […] By fitting the binding data to a one-binding-site model a Kd of 7 nM was measured.
Surface plasmon resonance measurements were performed on a BIAcore 2000 instrument (Pharmacia, Sweden). BIAcore sensor chips (type CM5, Pharmacia) were activated with 1:1 mixture of 0.2 M N-ethyl-N′-(3-dimethylaminopropyl) carbodiimide and 0.05 M N-hydroxysuccimine in water. Rabbit megalin was immobilized as described (Moestrup et al., 1996) at a concentration of 40 μg/ml in 10 mM sodium acetate, pH 4.5 and the remaining binding sites were blocked with 1 M ethanolamine, pH 8.5. The flow buffer was 10 mM Hepes, 150 mM NaCl and […], 1 mM EDTA, pH 7.4. The binding data were analyzed using the BIAevaluation program.
Bound radiolabel was released from the column by EDTA. Surface plasmon analysis (FIG. 10A) confirmed this binding. […] Megalin-bound cubilin was still capable of binding IF-B12 as shown by subjecting the megalin-chip to flow with IF-B12 after the binding of cubilin (FIG. 10B). Thus, the response after adding IF-B12 represents the formation of a megalin-cubilin-IF-B12 complex.

rabbit megalin (rabbit) [1] = experiment: SPR, RAP prebound to immobilized rabbit megalin; competitor cubilin in flow
[2] = target: megalin in native membranes (rat renal brush-border membrane vesicles; rat yolk sac cells) (rat) (UniProt P98158); experiment: cell-based or functional assay
Cubilin [3] = target: T1, Cubilin (Rattus norvegicus, UniProt O70244); experiment: Ligands for cubilin: competition with known ligands; type: binding; settings: RAP vs IF-B12; haptoglobin vs light chains; gentamicin vs light chain
[4] = system: rat renal cortical intermicrovillar clefts; experiment: Endosomal fusion reconstituted in vitro (energy transfer); type: biochemical; set-up: dose or concentration left out as unconfirmed; settings: membranes loaded with λ-light chains via homogenization buffer; n=8
Description: The λ_light chains were loaded into rat renal cortical intermicrovillar cleft at […] by addition to the homogenization buffer. Fusion reconstituted in vitro in light chain-loaded membranes was inhibited compared with albumin-loaded control membranes. Values are mean±standard error for n=8, p<0.05 by unpaired t-test.
Fusion of these light chain loaded membranes was compared to control membranes loaded with the same concentration of albumin. All fluorescence measurements were corrected per mg of protein, and fusion reconstituted in vitro in cuvettes (Hammond et al., 1994). Data are expressed as mean +standard error of the mean throughout the application. Statistical analysis was performed by analysis of variance and Bonferroni or Scheffe's post hoc comparison.
To test whether myeloma light chains are functionally important in membrane trafficking and fusion events, intermicrovillar clefts were loaded with light chains by adding it to the homogenization buffer (Hammond et al., 1994). Fusion reconstituted in vitro in cuvettes was assayed by energy transfer, and results were normalized per milligram protein (Hammond et al., 1994; Jo et al., 1995).

Cubilin [5] = target: T1, Cubilin; experiment: Surface plasmon resonance analysis of light chain/cubilin interaction; type: binding; set-up: from tissue; host or cells: rat renal cortex (intermicrovillar clefts); settings: cubilin 100 nM preincubated with κ-light chains (10 or 490 μM) or λ-light chains (10 μM)
Method: A sample of cubilin (100 nM) was incubated with κ-light chains (10 or 490 μM), or […] prior to injecting the sample over the κ-light chain surface. The binding of cubilin to the immobilized surfaces was reduced in the presence of κ- or λ-light chains in a dose-response fashion. Data are representative of experiments with 4 light chains on 3 chips. […] LC, light chains: RU, response units.
Intermicrovillar clefts prepared from renal cortices were biotinylated on the cytosolic facade using NHS-biotin (Winearls, 1995). Cubilin and the associated proteins were purified by immunoaffinity chromatography MAb 75 was coupled to CNBr-activated Sepharose 4B (Pharmacia, Saint Quentin en Yvelines, France) as previously described (Sahali et al., 1988; 1993). Protease inhibitors were added at all steps.
κ- or λ-light chains were immobilized via free amine groups to the dextran matrix of CM5 sensor chips activated by a 1/1 mixture of NHS and EDC. Unreacted sites were blocked with 1M ethanolamine, pH 8.5, (Jonsson et al., 1991; Sanders et al., 1988). The immobilization was conducted at 25° C. using 10 mM HEPES, 2 mM CaCl2, 150 mM NaCl, 0.005% NP-40, pH 7.4 as the flow buffer. Then 10 mM acetate pH 4.8 was used for electrostatic pre-concentration of the protein. […]

[6] = system: yolk sac epithelial cells (BN/MSV); experiment: Endocytosis of FITC-light chain by yolk sac cells; type: cell-based, rat; settings: 30 min, FIG. 14A; antibody at 1:1,000 dilution
Method: The yolk sac epithelial cell line (BN/MSV) was derived from yolk sac teratocarcinoma induced by fetectomy and placental injection of mouse sarcoma virus (Sahali et al., 1988). When grown under conventional conditions in modified Eagle's medium, supplemented with 2.5 mM L-glutamine, 10% fetal calf serum, and an antibiotic cocktail (penicillin, streptomycin, and Fungizone), the cells form a domed monolayer and express abundant cubilin (Sahali et al., 1988).
Internalization experiments were conducted by exposing confluent yolk sac cells in 24-cell plates to […] FITC-conjugated light chain. These cells were selected for endocytosis experiments because cubilin expression is 100-fold greater than cultured proximal tubule cells (Sahali et al., 1988). […] This concentration is selected because it is 10-fold higher than the half-maximal inhibitory concentration of the antibody determined from the brush border binding inhibition experiments. […] Cells are then trypsininzed, fixed in 1% formaldehyde, and suspended in PBS, and FITC incorporated into each cell is read in a Becton-Dickinson flow cytometer as described previously. Endocytosis curves are generated by plotting fluorescence units corrected for background against time. […]

rabbit megalin (rabbit) [7] = experiment: SPR (BIAcore 2000), rabbit megalin immobilized, 20 nM purified cubilin in flow, blank chip subtracted, one-binding-site fit
[8] = system: renal brush border membrane; settings: cited from earlier work
[9] = system: rat renal brush border membrane vesicles; experiment: Gentamicin competition with fluorescein-light chain binding to brush border membrane vesicles (flow cytometry); settings: control 39.6±4.2, n=4
Method: Given the abundance of megalin on the renal brush border membrane, if megalin is a light chain receptor this would predict that small polybasic drugs, such as gentamicin, which are known ligands for megalin, should compete for light chain binding to renal brush border membrane vesicles. To test this, rat renal brush border membrane vesicles were incubated in fluorescein-conjugated light chains with various concentrations of gentamicin. After washing, fluorescein-light chain binding to the membranes was analyzed by flow cytometry (FIG. 16). Estimate of half maximal binding concentration of gentamicin between 60 and 70 μM was placed in the middle of the curve. Gentamicin competes with fluorescent light chain binding to renal brush border membranes in a dose-dependent manner (control FITC-light chain binding 39.6±4.2 arbitrary fluorescence units, 10 μM gentamicin 45.1±3.1, 100 μM gentamicin 8.9±33.8*, 1000 μM gentamicin 6.3±1.9*, n=4, *p<0.05).

T1 sequence (O70244 33-3623): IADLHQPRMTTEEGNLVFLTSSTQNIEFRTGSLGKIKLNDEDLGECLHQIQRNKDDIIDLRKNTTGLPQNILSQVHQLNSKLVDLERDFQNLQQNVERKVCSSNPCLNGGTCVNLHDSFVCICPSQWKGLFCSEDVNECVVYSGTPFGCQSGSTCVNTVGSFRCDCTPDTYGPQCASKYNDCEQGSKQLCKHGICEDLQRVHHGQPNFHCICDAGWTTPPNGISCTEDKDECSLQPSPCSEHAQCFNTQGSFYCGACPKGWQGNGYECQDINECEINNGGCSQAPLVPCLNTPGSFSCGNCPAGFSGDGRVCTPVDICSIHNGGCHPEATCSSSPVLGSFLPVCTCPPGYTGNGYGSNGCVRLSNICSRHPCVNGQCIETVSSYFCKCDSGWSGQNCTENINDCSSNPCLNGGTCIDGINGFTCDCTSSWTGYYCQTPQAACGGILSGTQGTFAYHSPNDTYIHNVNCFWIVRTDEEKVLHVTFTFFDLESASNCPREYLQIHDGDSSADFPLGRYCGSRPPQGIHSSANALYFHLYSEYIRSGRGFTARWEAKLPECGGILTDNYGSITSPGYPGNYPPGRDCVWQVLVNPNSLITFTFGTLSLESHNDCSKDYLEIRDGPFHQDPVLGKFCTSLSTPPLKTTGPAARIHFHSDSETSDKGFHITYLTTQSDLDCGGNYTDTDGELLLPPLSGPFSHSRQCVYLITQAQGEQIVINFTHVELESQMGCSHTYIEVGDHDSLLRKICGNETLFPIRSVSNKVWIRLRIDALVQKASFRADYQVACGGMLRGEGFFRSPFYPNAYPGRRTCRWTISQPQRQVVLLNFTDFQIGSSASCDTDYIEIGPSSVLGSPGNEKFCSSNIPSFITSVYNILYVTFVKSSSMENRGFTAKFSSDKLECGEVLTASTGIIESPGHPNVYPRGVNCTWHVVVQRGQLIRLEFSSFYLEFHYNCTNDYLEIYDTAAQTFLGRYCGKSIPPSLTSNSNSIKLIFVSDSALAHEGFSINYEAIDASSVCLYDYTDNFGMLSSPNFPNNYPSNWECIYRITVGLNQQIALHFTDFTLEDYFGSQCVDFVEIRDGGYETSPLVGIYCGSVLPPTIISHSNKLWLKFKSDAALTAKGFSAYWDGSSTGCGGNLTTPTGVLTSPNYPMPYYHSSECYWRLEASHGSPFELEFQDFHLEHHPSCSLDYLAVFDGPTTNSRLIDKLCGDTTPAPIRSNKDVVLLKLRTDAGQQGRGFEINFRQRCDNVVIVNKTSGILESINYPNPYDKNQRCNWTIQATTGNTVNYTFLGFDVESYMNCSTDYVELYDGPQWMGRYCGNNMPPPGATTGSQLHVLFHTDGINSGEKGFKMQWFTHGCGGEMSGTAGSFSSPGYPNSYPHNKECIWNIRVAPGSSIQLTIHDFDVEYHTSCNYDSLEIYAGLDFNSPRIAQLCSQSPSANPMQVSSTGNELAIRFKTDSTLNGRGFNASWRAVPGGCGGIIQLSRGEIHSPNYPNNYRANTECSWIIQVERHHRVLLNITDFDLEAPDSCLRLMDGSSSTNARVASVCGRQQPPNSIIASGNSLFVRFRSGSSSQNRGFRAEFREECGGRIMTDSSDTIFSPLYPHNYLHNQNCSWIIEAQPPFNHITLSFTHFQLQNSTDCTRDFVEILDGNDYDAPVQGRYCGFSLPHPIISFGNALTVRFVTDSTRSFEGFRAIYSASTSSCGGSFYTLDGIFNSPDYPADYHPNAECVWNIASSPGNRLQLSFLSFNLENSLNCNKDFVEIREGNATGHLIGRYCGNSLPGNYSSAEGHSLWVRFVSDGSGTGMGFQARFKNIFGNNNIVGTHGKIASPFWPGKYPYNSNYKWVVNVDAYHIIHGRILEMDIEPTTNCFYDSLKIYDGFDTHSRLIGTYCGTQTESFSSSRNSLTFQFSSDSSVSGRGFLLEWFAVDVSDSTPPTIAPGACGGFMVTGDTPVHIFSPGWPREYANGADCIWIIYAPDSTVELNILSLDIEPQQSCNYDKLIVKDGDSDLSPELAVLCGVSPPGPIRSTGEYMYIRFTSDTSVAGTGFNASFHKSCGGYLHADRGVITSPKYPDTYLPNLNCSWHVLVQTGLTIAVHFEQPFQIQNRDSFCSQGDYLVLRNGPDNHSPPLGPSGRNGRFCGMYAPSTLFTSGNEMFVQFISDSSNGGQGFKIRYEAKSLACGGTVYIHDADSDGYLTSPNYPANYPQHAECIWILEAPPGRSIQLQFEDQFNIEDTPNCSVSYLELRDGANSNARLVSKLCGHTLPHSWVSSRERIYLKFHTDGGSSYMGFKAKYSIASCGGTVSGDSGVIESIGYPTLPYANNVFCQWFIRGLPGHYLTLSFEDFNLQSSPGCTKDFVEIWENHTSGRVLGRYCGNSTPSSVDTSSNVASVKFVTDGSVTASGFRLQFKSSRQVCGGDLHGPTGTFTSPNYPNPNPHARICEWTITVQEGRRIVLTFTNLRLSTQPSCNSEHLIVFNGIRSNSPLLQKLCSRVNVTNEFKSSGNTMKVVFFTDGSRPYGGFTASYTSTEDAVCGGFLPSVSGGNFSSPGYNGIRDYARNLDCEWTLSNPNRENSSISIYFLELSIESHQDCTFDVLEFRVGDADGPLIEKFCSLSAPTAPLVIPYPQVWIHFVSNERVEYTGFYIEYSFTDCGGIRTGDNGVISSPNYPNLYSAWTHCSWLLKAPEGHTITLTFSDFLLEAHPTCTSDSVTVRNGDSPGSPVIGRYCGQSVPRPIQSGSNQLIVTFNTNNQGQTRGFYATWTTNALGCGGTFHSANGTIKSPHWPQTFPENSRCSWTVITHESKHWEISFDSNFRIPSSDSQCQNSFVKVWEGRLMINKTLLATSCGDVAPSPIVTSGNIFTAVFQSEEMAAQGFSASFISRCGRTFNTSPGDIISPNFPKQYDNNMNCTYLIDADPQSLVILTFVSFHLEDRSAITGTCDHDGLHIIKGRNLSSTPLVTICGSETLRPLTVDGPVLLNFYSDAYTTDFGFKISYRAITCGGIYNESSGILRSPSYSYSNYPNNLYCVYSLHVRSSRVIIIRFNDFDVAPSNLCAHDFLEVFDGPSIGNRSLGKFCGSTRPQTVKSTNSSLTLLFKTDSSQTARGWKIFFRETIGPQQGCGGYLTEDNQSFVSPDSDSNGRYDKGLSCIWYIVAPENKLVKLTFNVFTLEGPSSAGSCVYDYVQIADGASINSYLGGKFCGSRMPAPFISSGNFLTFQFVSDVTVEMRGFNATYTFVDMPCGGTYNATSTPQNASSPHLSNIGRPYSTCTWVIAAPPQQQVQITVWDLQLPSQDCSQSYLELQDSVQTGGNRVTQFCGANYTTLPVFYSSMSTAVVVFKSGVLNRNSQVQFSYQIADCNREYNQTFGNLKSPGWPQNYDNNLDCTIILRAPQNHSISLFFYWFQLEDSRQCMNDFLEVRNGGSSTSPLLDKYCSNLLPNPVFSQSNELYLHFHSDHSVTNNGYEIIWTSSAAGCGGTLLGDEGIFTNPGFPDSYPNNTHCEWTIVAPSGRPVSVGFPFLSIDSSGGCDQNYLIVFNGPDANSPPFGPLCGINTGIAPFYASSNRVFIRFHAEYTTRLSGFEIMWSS
Chain of RAP (Receptor related protein) (ligand) (P30533 35-357): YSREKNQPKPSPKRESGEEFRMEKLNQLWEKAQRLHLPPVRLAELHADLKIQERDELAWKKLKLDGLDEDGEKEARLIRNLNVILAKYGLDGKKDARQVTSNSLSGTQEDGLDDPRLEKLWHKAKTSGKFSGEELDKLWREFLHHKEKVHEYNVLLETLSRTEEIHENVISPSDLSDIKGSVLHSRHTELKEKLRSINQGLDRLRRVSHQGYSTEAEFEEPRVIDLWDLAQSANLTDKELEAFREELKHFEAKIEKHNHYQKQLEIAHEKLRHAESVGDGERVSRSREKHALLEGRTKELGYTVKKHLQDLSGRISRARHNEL
Chain of cubilin (purified; species of origin not stated where used) (receptor) (O70244 33-3623): as the sequence (O70244 33-3623) above

Substance: Intrinsic factor vitamin B12: intrinsic factor-vitamin B12 complexes
- Binding to megalin (control experiments) (Rabbit megalin; megalin chip): no binding

Substance: RAP (Receptor related protein) (ligand)
- reduction of cubilin binding to megalin (rabbit megalin (rabbit) [1]): 75%
- reduction of endocytosis of 125I-IF-B12 in cultured yolk sac cell [2]: 10 to 15%

Substance: RAP: Receptor related protein; binds megalin and cubilin
- Reduction of binding of cubilin to megalin (Rabbit megalin; RAP prebound to megalin): 75%
- Competition between ligands for binding to cubilin (Cubilin [3]): does not inhibit

Substance: albumin: bovine serum albumin used as nonspecific protein control
- Endosomal fusion [4]: 1584±314 arbitrary fluorescence units/mg protein
- Effect of free protein on binding of cubilin to immobilized light chains (competition) (Cubilin [5]): neither competed with light chains, nor bound to cubilin
- Effect on FITC-light chain endocytosis [6]: no effect

Substance: cubilin (purified; species of origin not stated where used) (receptor)
- Kd (rabbit megalin (rabbit) [7]): 7 nM

Substance: cubilin: 460 kDa epithelial glycoprotein receptor for intrinsic factor-vitamin B12 complexes; rat sequence SEQ ID No. 2
- Kd (Rabbit megalin; binding data fitted to a one-binding-site model, 20 nM purified cubilin over immobilized rabbit megalin): 7 nM

Substance: cytochrome c: low molecular weight protein competing with light chain
- Competition with light chain for brush border membrane binding [8]: competing

Substance: gentamicin
- Competition between ligands for binding to cubilin (Cubilin [3]): directly interferes
- FITC-light chain binding ([9]; 10 μM gentamicin): 45.1±3.1 arbitrary fluorescence units
- FITC-light chain binding ([9]; 100 μM gentamicin): 8.9±33.8 arbitrary fluorescence units
- FITC-light chain binding ([9]; 1000 μM gentamicin): 6.3±1.9 arbitrary fluorescence units

Substance: haptoglobin: protein ligand for cubilin
- Competition between ligands for binding to cubilin (Cubilin [3]): do not compete

Substance: lysozyme
- Competition with light chain for brush border membrane binding [8]: competing

Substance: myoglobin
- Competition with light chain for brush border membrane binding [8]: competing
